Laboratory results: ChEMBL document CHEMBL3244327, “Benzomorphans. Structure of a position isomer” (J Med Chem, 1978)
Active and inactive are the calls of the source. No cut-off for these calls is given here.

Key:
[1] = test system: Rattus norvegicus; assay: Toxicity in rat at 80 mg/kg, sc; format: organism-based; parameters: dose 80 mg/kg, route subcutaneous; settings: in vivo
[2] = test system: Rattus norvegicus; assay: Narcotic antagonist activity in rat assessed as dose required for 50% antagonist activity at 10 mg/kg, sc co-treated with meperidine; format: functional, organism-based; parameters: dose 10 mg/kg
[3] = test system: Mus musculus; assay: Analgesic activity in sc dosed mouse assessed as inhibition of acetylcholine bromide-induced writhing after 2 mins; format: functional
[4] = test system: Rattus norvegicus; assay: Narcotic antagonist activity in sc dosed rat assessed as dose required for 50% antagonist activity co-treated with meperidine; format: functional
[5] = test system: Rattus norvegicus; assay: Narcotic antagonist activity in rat assessed as dose required for 50% antagonist activity at 80 mg/kg, sc co-treated with meperidine; format: functional, organism-based; parameters: dose 80 mg/kg

SMILES: CC1CN(Cc2ccccc2)C2Cc3ccc(O)cc3[C@@]1(C)C2 (some centres undefined)
- Activity [1]: Toxic
- Activity [2]: inactive
- ED50 [3]: 8.5 mg/kg

SMILES: CC(C)=CCN1C[C@@H](C)[C@]2(C)C[C@@H]1Cc1ccc(O)cc12
- AD50 [4]: 2.8 mg/kg
- ED50 [3]: 29 mg/kg

SMILES: CN1CC[C@]23c4c5ccc(O)c4O[C@H]2[C@@H](O)C=C[C@H]3[C@H]1C5 [MORPHINE]
- Activity [4]: inactive
- ED50 [3]: 0.47 mg/kg

SMILES: CCC1CN(C)C2Cc3ccc(O)cc3[C@@]1(C)C2 (some centres undefined)
- AD50 [4]: 9 mg/kg
- ED50 [3]: 20 mg/kg

SMILES: CC[C@@]12CC(Cc3ccc(O)cc31)N(CC=C(C)C)CC2C (some centres undefined)
- AD50 [4]: >40 mg/kg

SMILES: CC(C)=CCN1CC[C@@]2(C)c3cc(O)ccc3C[C@@H]1[C@@H]2C (relative stereo)
- AD50 [4]: 3.9 mg/kg
- ED50 [3]: 2.2 mg/kg

SMILES: C=CCN1CC(C)[C@]2(CC)CC1Cc1ccc(O)cc12 (some centres undefined)
- AD50 [4]: 0.037 mg/kg
- ED50 [3]: 10 mg/kg

SMILES: C=CCN1CC[C@]2(CC)c3cc(O)ccc3CC1[C@@H]2C
- AD50 [4]: 0.064 mg/kg
- ED50 [3]: 0.23 mg/kg

SMILES: CC[C@@]12CCN(CC=C(C)C)C(Cc3ccc(O)cc31)[C@@H]2C
- AD50 [4]: 10.9 mg/kg
- ED50 [3]: 2.1 mg/kg

SMILES: C[C@H]1C2Cc3ccc(O)cc3[C@@]1(C)CCN2Cc1ccccc1
- AD50 [4]: 1.3 mg/kg
- ED50 [3]: 23 mg/kg

SMILES: CC[C@H]1C2Cc3ccc(O)cc3[C@@]1(C)CCN2C
- Activity [5]: inactive
- ED50 [3]: 1.1 mg/kg

SMILES: C[C@H]1C2Cc3ccc(O)cc3[C@@]1(C)CCN2C
- ED50 [3]: 0.54 mg/kg

SMILES: CC1CN(C)C2Cc3ccc(O)cc3[C@@]1(C)C2 (some centres undefined)
- ED50 [3]: 2.9 mg/kg
